Values of other authors in paper PMC9171782 (Proceedings of the National Academy of Sciences of the …, 2022).

Key:
[1] = system: GLP-1R with mutation of W33; conditions: mutation of W33 conserved in human and primate GLP-1Rs

Compound	agonist activity at W33-mutated GLP-1R [1]	insulinotropic activity upon oral intake (cynomolgus monkeys)	bioavailability (noninjectable formulation in the clinic)	gastrointestinal complaints (such as nausea and vomiting)
N#Cc1ccc(COc2cccc(C3=CCN(Cc4nc5ccc(C(=O)O)nc5n4C[C@@H]4CCO4)CC3)n2)c(F)c1 [RGT1383]	failed to elicit agonist activity	–	–	–
N#Cc1ccc(COc2cccc(C3CCN(Cc4nc5ccc(C(=O)O)cc5n4C[C@@H]4CCO4)CC3)n2)c(F)c1 [PF-06882961]	failed to elicit agonist activity	demonstrated	–	–
Semaglutide	–	–	low bioavailability	frequent gastrointestinal complaints
Cc1cc(-n2nc3c(c2-n2ccn(-c4ccc5c(cnn5C)c4F)c2=O)[C@H](C)N(C(=O)c2cc4cc(N5CCOC(C)(C)C5)ccc4n2[C@@]2(c4noc(=O)[nH]4)C[C@@H]2C)CC3)cc(C)c1F [CHU-128]	failed to elicit agonist activity	–	–	–
Cc1cc(-n2nc3c(c2-n2ccn(-c4ccc5c(cnn5C)c4F)c2=O)[C@H](C)N(C(=O)c2cc4cc([C@H]5CCOC(C)(C)C5)ccc4n2[C@@]2(c4noc(=O)[nH]4)C[C@@H]2C)CC3)cc(C)c1F [LY3502970]	failed to elicit agonist activity	demonstrated	–	–
